Test results from ChEMBL document CHEMBL5042524, “Discovery of Novel Histone Deacetylase 6 (HDAC6) Inhibitors with Enhanced Antitumor Immunity of Anti-PD-L1 Immunotherapy in Melanoma” (J Med Chem, 2022).
Active and inactive are the calls of the source. No cut-off for these calls is given here.

Tests used:
[1] = test system: HCT-116; assay: cells; type: functional, cell-based; conditions: Homo sapiens, HCT-116, 48 h
Description: Antiproliferative activity against human HCT-116 cells assessed as inhibition of cell proliferation measured after 48 hrs by MTT assay

[2] = test system: Jurkat; assay: Effect on acetyl-H3 expression level in human Jurkat T cells at 0.1 to 0.8 uM incubated for 6 hrs by Western blot analysis; type: functional, cell-based; conditions: dose 0.1-0.8 µM
[3] = test system: B16-F10; assay: Effect on acetyl-H3 expression level in mouse B16-F10 cells at 1 to 8 uM incubated for 6 hrs by Western blot analysis; type: functional, cell-based; conditions: dose 1-8 µM
[4] = test system: B16-F10; assay: Effect on acetyl-H3 expression level in mouse B16-F10 cells at 1 to 4 uM incubated for 6 hrs by Western blot analysis; type: functional, cell-based; conditions: dose 1-4 µM
[5] = biological target: Histone deacetylase 1 (Homo sapiens, UniProt Q13547); assay: Inhibition of recombinant human HDAC1 expressed in baculovirus expression system using Ac-Leu-Gly-Lys (Ac)-AMC as substrate preincubated for 5 mins followed by substrate addition and measured after 30 mins by fluorescence microtiter plate reader assay
Histone deacetylase 1, sequence (Q13547 whole entry): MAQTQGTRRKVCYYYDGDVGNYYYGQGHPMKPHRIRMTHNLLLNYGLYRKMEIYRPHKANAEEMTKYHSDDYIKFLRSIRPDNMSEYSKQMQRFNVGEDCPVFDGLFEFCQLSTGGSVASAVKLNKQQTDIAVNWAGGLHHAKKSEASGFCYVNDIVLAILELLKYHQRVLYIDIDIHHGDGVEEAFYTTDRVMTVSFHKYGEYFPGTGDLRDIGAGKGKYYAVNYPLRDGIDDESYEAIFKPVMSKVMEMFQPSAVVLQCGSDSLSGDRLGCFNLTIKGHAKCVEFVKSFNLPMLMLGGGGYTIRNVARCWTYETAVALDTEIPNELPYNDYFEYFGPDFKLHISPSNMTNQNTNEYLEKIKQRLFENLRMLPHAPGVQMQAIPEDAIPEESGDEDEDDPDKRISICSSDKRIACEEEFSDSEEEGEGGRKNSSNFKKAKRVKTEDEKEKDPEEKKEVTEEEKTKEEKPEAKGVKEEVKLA

[6] = biological target: Histone deacetylase 3 (Homo sapiens, UniProt O15379); assay: Inhibition of recombinant human His-tagged HDAC3 expressed in baculovirus insect cells using Ac-Leu-Gly-Lys (Ac)-AMC as substrate preincubated for 5 mins followed by substrate addition and measured after 30 mins by fluorescence microtiter plate reader assay
Histone deacetylase 3, sequence (O15379 whole entry): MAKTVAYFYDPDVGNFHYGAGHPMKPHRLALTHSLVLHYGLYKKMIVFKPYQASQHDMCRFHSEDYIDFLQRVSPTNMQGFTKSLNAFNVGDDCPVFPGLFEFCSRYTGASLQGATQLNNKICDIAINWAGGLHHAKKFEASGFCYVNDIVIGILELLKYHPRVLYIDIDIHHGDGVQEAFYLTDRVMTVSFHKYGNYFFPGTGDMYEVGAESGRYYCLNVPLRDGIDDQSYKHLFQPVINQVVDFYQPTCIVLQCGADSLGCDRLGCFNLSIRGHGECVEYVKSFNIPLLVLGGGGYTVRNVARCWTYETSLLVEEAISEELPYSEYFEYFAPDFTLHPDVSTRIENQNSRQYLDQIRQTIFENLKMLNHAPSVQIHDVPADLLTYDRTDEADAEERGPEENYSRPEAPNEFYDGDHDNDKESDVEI

[7] = test system: Jurkat; assay: Effect on acetyl-SMC3 expression level in human Jurkat T cells at 0.1 to 0.4 uM incubated for 6 hrs by Western blot analysis; type: functional, cell-based; conditions: dose 0.1-0.4 µM
[8] = Cytotoxicity against human Jurkat cells assessed as reduction in cell viability incubated for 72 hrs by CCK-8 assay
[9] = test system: Jurkat; assay: Induction of apoptosis in human Jurkat T cells assessed as upregulation of acetylated Ku70 expression measured after 6 hrs by Western blot analysis; type: functional, cell-based; conditions: dose 0.2-2 µM
[10] = test system: MCF7; assay: cells; type: functional, cell-based; conditions: Homo sapiens, MCF7, 48 h
Description: Antiproliferative activity against human MCF7 cells assessed as inhibition of cell proliferation measured after 48 hrs by MTT assay

[11] = Antiproliferative activity against human YCC-11 cells assessed as cell growth inhibition; type: functional, cell-based
[12] = test system: Jurkat; assay: Induction of apoptosis in human Jurkat cells assessed as upregulation of Ku70 expression at 0.2 to 2 uM measured after 24 hrs by Western blot analysis; type: functional, cell-based; conditions: dose 0.2-2 µM
[13] = test system: A549; assay: cells; type: functional, cell-based; conditions: Homo sapiens, A549, 48 h
Description: Antiproliferative activity against human A549 cells assessed as inhibition of cell proliferation measured after 48 hrs by MTT assay

[14] = test system: B16-F10; assay: Induction of apoptosis in mouse B16-F10 cells assessed as increase in apoptotic cells at 0.1 uM incubated for 48 hrs by Annexin V-FITC/PI staining based flow cytometry analysis relative to control; type: functional
[15] = test system: Jurkat; assay: Effect on acetyl-SMC3 expression level in human Jurkat T cells at 0.1 to 0.8 uM incubated for 6 hrs by Western blot analysis; type: functional, cell-based; conditions: dose 0.1-0.8 µM
[16] = test system: Jurkat; assay: Induction of apoptosis in human Jurkat T cells assessed as increase in Bax protein expression at 0.2 to 2 uM measured after 6 hrs by Western blot analysis; type: functional, cell-based; conditions: dose 0.2-2 µM
[17] = test system: B16-F10; assay: Effect on acetyl-SMC3 expression level in mouse B16-F10 cells at 1 to 8 uM incubated for 6 hrs by Western blot analysis; type: functional, cell-based; conditions: dose 1-8 µM
[18] = test system: B16-F10; assay: Upregulation of alpha-tubulin expression in mouse B16-F10 cells at 0.1 to 2 uM incubated for 6 hrs by Western blot analysis; type: functional, cell-based; conditions: dose 0.1-2 µM
[19] = test system: Jurkat; assay: Induction of apoptosis in human Jurkat T cells assessed as downregulation of Bcl-2 expression at 0.2 to 2 uM incubated for 6 hrs by Western blot analysis; type: functional, cell-based; conditions: dose 0.2-2 µM
[20] = test system: B16-F10; assay: Induction of apoptosis in mouse B16-F10 cells assessed as increase in apoptotic cells at 0.5 uM incubated for 48 hrs by Annexin V-FITC/PI staining based flow cytometry analysis relative to control; type: functional
[21] = biological target: Histone deacetylase; assay: Inhibition of HDAC in human HeLa nuclear extracts using fluorometric substrate incubated for 30 mins by fluorescence plate reader analysis; type: cell-based
[22] = test system: Jurkat; assay: Upregulation of acetylated alpha-tubulin expression in human Jurkat T cells incubated for 6 hrs by Western blot analysis; type: functional, cell-based; conditions: dose 0.1-2 µM
[23] = test system: Jurkat; assay: Upregulation of alpha-tubulin expression in human Jurkat T cells at 0.1 to 2 uM incubated for 6 hrs by Western blot analysis; type: functional, cell-based; conditions: dose 0.1-2 µM
[24] = test system: Jurkat; assay: Effect on acetyl-H3 expression level in human Jurkat T cells at 0.1 to 0.4 uM incubated for 6 hrs by Western blot analysis; type: functional, cell-based; conditions: dose 0.1-0.4 µM
[25] = test system: B16-F10; assay: Induction of apoptosis in mouse B16-F10 cells assessed as increase in apoptotic cells at 1 uM incubated for 48 hrs by Annexin V-FITC/PI staining based flow cytometry analysis relative to control; type: functional
[26] = test system: B16-F10; assay: Upregulation of acetylated alpha-tubulin expression in mouse B16-F10 cells incubated for 6 hrs by Western blot analysis; type: functional, cell-based; conditions: dose 0.1-2 µM
[27] = Antiproliferative activity against human YCC3/7 cells assessed as cell growth inhibition; type: functional, cell-based

| IC50 [1] [nM] | IC50 [5] [nM] | IC50 [6] [nM] | IC50 [10] [nM] | IC50 [13] [nM] | Compound | Activity [2] | Activity [3] | Activity [4] | Activity [7] | IC50 at 72 h [8] [nM] | Activity [9] | IC50 [11] [nM] | Activity [12] | Activity [14] [%] | Activity [15] | Activity [16] | Activity [17] | Activity [18] | Activity [19] | Activity [20] [%] | further results |
| --- | --- | --- | --- | --- | --- | --- | --- | --- | --- | --- | --- | --- | --- | --- | --- | --- | --- | --- | --- | --- | --- |
| 1170 | 4660 | 7120 | 2680 | 2220 | COc1ccc(-c2ncc(C(=O)NCCCCCCC(=O)NO)[nH]2)c(OC)c1 | Active | Active | Active | Active | 230 | Dose-Dependent Effect | 1280 | inactive | 16.58 | Active | Active | Active | inactive | Active | 38.71 | IC50 [21]: 80 nM; Activity [22]: Dose-Dependent Effect; Activity [23]: inactive; Activity [24]: Active; Activity [25]: 57.73%; Activity [26]: Dose-Dependent Effect; IC50 [27]: 1520 nM |
| 510 | 3190 | 10400 | 910 | 1910 | COc1ccc(-c2ncc(C(=O)NCCCCCCC(=O)NO)s2)c(OC)c1 | Active | Active | Active | Active | 160 | Dose-Dependent Effect | 920 | inactive | 57.09 | Active | Active | Active | inactive | Active | 78.98 | IC50 [21]: 40 nM; Activity [22]: Dose-Dependent Effect; Activity [23]: inactive; Activity [24]: Active; Activity [25]: 87.91%; Activity [26]: Dose-Dependent Effect; IC50 [27]: 1080 nM |
